Measured values as given in PMC7362391, “USP30 sets a trigger threshold for PINK1–PARKIN amplification of mitochondrial ubiquitylation” (Life Science Alliance, 2020).

What was measured:
USP30 = biological target: T1, USP30 (Homo sapiens, UniProt Q70CQ3); experiment: bio-layer interferometry (no significant off-rate); IC50 and kinact/KI with purified USP30 and ubiquitin-rhodamine; Ub-PA competition in lysate and cells; format: biochemical
T1 construct: BLI: residues 64-502Δ179-216 & 288-305 (biotinylated); activity assay: residues 57-517
T1 sequence (Q70CQ3 57-517): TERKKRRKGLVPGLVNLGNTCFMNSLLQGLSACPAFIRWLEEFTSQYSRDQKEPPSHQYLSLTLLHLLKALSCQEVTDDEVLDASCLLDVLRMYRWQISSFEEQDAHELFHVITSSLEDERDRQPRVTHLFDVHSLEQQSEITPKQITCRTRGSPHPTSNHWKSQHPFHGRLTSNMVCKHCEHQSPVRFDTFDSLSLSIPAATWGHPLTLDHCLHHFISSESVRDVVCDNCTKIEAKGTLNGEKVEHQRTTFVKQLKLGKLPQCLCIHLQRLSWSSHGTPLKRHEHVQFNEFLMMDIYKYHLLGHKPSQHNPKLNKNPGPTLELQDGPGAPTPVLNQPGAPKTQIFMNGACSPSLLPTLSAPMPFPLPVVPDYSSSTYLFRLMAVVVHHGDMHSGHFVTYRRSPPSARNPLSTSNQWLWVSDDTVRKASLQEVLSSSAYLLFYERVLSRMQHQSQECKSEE
Description: bio-layer interferometry (no significant off-rate); IC50 and kinact/KI with purified USP30 and ubiquitin-rhodamine; Ub-PA competition in lysate and cells on USP30 | Bio-layer interferometry experiments show binding behaviour that is consistent with covalent modification of USP30

USP6 = USP6 (Homo sapiens, UniProt P35125); experiment: DUB profiler selectivity panel (Ubiquigent) at […]; format: biochemical
Chain of USP6 (P35125 whole entry): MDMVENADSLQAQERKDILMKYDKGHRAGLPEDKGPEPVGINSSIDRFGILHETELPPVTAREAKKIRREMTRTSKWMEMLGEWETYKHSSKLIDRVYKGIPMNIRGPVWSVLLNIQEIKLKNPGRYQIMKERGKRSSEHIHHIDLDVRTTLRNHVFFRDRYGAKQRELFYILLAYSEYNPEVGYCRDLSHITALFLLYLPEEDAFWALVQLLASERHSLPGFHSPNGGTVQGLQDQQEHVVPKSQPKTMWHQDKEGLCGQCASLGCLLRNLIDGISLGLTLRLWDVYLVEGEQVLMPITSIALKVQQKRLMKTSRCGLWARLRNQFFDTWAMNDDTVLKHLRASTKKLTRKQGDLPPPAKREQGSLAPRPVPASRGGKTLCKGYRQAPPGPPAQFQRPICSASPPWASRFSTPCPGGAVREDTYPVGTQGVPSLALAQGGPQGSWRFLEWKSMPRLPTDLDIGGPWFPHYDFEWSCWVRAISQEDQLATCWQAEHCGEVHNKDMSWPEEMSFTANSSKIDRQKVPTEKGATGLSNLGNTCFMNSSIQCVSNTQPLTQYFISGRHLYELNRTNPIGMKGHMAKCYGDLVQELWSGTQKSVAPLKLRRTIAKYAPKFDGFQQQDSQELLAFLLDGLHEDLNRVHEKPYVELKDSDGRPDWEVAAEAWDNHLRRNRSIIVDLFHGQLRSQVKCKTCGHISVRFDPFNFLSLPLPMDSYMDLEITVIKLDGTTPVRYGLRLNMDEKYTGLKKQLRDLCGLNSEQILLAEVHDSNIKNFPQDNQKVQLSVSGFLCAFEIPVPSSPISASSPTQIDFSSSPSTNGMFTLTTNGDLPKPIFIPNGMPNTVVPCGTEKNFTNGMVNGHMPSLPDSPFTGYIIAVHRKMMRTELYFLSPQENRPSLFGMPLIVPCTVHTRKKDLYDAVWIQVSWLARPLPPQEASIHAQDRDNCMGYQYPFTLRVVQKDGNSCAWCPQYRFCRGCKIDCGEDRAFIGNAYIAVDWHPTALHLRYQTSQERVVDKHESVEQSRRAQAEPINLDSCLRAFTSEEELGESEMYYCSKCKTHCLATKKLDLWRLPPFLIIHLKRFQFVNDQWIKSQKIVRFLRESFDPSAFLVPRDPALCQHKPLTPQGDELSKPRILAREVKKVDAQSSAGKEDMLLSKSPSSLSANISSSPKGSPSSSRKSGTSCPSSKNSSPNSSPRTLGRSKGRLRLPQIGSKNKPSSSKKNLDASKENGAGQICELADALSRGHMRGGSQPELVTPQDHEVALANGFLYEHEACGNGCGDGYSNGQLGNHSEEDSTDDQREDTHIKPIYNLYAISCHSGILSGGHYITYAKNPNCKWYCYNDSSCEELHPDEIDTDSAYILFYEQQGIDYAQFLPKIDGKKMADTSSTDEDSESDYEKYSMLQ

IC50 (USP30): ~1 nM
SMILES: N#CN1CCC(NC(=O)c2cc(-c3ccccc3Oc3ccccc3)n[nH]2)C1 (centres unmarked) [FT385, FT3967385]
DUB profiler selectivity panel (Ubiquigent) at 2, 20 and 200 nM (USP6): Only one other family member, the plasma membrane–associated USP6, showed a significant degree of inhibition
